From patent US20100267803A1, “Regulators Of Fat Metabolism As Anti-Cancer Targets” (The Research Foundation of State University Of New York, priority 2008, published 2010)

Tests used:
Type in all cases: cell-based, human
BT474 cells [1] = test: RNAi screen, alamarBlue cell proliferation and viability; conditions: shRNA transfection
Excerpt: FIG. 1 An RNAi screen targeting genes overexpressed in breast cancer. (a) Three transfection mixes were produced for each shRNA and each was transfected into triplicate wells of BT474 cells. AlamarBlue was used to monitor cell proliferation and viability. […] (b) The genetic and functional linkage of NR1D1 and PBP. Mb refers to map position on chromosome 17. (c) ERBB2-overexpressing (OEX) and ERBB2 non-overexpressing (non-OEX) breast cancer cell lines as well as the (non-OEX) HMEC and HEK 293 cells were transfected and assayed as in (a). […] Genes clustered with ERBB2 are boxed.
Amplification of the ERBB2 oncogene occurs in 10-34% of breast cancer cases and is correlated with aggressive disease and poor clinical outcome^1. […] However, its success has been tempered by response rates of only 30% when used as a single agent therapy in patients with metastatic ERBB2-positive breast cancer^2. A large number of genes co-overexpressed with ERBB2 in this tumour type have been proposed to contribute to the aggressiveness of this cancer^3-5. Applicants have performed an unbiased functional RNAi screen^8-10 to determine if any of these co-overexpressed genes are essential for ERBB2 positive breast cancer cell survival.
RNAi screen, transfections and constructs. The flag-RevErba (flag-NR1D1) overexpression construct was a generous gift of M. Lazar. The LSXN-neu* (ERBB2) overexpression construct was a generous gift of L. Petti. shRNA constructs were expressed from the pSHAG-MAGIC 2 (pSM2) vector and derived from a genome-wide shRNA library^31. ShRNAs targeting the firefly (Photinus pyralis) luciferase gene were used as controls. Transfection efficiency was monitored by co-transfection with a modified MSCV-Puro vector expressing green fluorescent protein (GFP). The alamarBlue (Biosource) assay was performed 96 h post-transfection, since BT474 cells have a population doubling time of ˜100 hours. For mature sequences of the shRNAs that produced the best results on decreasing BT474 viability, Table S1; a complete list is available in the RNAi Codex web page (http://codex.cshl.edu). The shRNAs targeting the luciferase gene were constructed as described in the RNAi Codex web page (http://codex.cshl.edu/scripts/newmain.pl) using a modified pSM2 vector containing the PheS gene (pSM2-PheS) in the cloning site, as a negative selection marker. The empty vector control (pSM2e) was constructed by XhoI and EcoRI (New England Biolabs) digestion of pSM2-PheS, followed by nucleotide filling of protruding ends by Klenow polymerase and blunt-end ligation. Transfections were performed using FuGENE 6 and HD FuGENE (Roche) according to the manufacturer's protocol. High-throughput transfections were performed using an EpMotion 5070 fluidics station (Eppendorf). For quantification of alamarBlue we used a BioTek HT Synergy plate reader. AlamarBlue values from the RNAi screens on other cell types were also calculated as above and subjected to hierarchical cluster analysis using Cluster 2.11 (M. Eisen Lab).

ACACA mRNA = test: qRT-PCR of ACACA mRNA in BT474 cells; conditions: shRNA or 20 μM GW9662 for 48 h
Method: (§1) FIG. 4 NR1D1 and PBP coordinate fatty acid metabolism in breast cancer cells. (a) BT474, MDA-MB-361, MCF-7 and HMEC cells were stained with Oil-Red O lipid and hematoxylin nuclear stains. (b) Fat stores were quantified by BODIPY 493/503 lipid probe staining (Error bars are s.d from 3 individual experiments). (c) FASN, ACLY, ACACA and FADS2 mRNA levels of BT474 cells treated with luciferase (control), PBP or NR1D1 shRNAs, or with vehicle and 20 μM of GW9662 for 48 h, analyzed by qRT-PCRs. (Error bars are s.d from 3 experiments; ***P<0.001, **P=0.005) (d) BT474 cells were transfected with FASN, ACLY and ACACA shRNAs and co-transfected with GFP. Transfected cells were counted at 24 h and 72 h and the 72h-to-24 h ratio for each shRNA was calculated and expressed as % of the control shRNA (luciferase). (Error bars are s.d from 3 individual experiments; **P<0.01, ***P<0.002). (e) BODIPY images and (f) quantification of BT474 cells transfected with luciferase (control), PBP or NR1D1 shRNAs and co-transfected with DsRed (Error bars are s.d from 3 individual experiments; ***P<0.03). Arrows indicate transfected cells.
Cell viability—apoptosis assays. […] At least 30 fields were imaged per single experiment. […] Immunoblotting. […] PCR reaction was run using standard conditions.

BT474 cells [2] = test: Neutral fat stores by BODIPY 493/503 staining; conditions: first 48 h after transfection
Method: as §1
Metabolic assays. […] Transfected cells were monitored by co-transfecting with the pDsRed-Monomer-N1 vector (Clontech). Cells were imaged and analyzed using the In Cell Analyzer 1000—In Cell Investigator 3.4 system (GE Biosciences), as described above. […]

| Substance | effect on cell proliferation (BT474 cells [1]) | ACACA transcript level (ACACA mRNA) | decrease in fat stores (BT474 cells [2]) |
| --- | --- | --- | --- |
| NR1D1 shRNA: shRNA, mature sequence GGCATGGTGTTACTGTGTA (shRNA) | most dramatic effect on cell proliferation | reduced | 47% |
| PBP shRNA: shRNA, mature sequence CCGAGTTCCTCTTATCCTA (shRNA) | most dramatic effect on cell proliferation | reduced | 30% |
